Test results from patent publication US12714674B2, “JAK inhibitors having a specific particle size distribution” (Elanco US Inc., priority 2020, dated 2026).

Tests used:
[1] = system: pruritus and skin lesions associated with allergic dermatitis in dogs; assay: Four-arm, blinded, randomized, placebo-controlled study: control of pruritus and skin lesions associated with allergic dermatitis in dogs; format: in vivo, dog
Method: This study evaluated 2-(3-(4-(7H-pyrrolo[2,3-d]pyrimidin-4-yl)-1H-pyrazol-1-yl)-1-(cyclopropylsulfonyl)azetidin-3-yl)acetonitrile for control of pruritus and skin lesions associated with allergic dermatitis in dogs.
Oral tablets were prepared containing Form II 2-(3-(4-(7H-pyrrolo[2,3-d]pyrimidin-4-yl)-1H-pyrazol-1-yl)-1-(cyclopropylsulfonyl)azetidin-3-yl)acetonitrile, as follows. […] The tablet blends were pressed giving tablet cores containing 2.4 mg, 3.6 mg, 5.4 mg, and 16 mg of crystal Form II 2-(3-(4-(7H-pyrrolo[2,3-d]pyrimidin-4-yl)-1H-pyrazol-1-yl)-1-(cyclopropylsulfonyl)azetidin-3-yl)acetonitrile, as well as a placebo core. The tablet cores were coated with a mixture containing water and Opadry 20A150011 Red, thereby giving the final oral tablets for the study.
A four-arm, blinded, randomized, placebo-controlled study was conducted to assess the efficacy of daily administration of 2-(3-(4-(7H-pyrrolo[2,3-d]pyrimidin-4-yl)-1H-pyrazol-1-yl)-1-(cyclopropylsulfonyl)azetidin-3-yl)acetonitrile for control of pruritus and skin lesions associated with allergic dermatitis in dogs. Subjects were randomized to one of the following treatment arms: API-containing Tablets, 0.25-0.40 mg/kg Body Weight; API-containing Tablets, 0.40-0.60 mg/kg Body Weight; API-containing Tablets, 0.60-0.80 mg/kg Body Weight; and Placebo Tablets, 0.0 mg/kg Body Weight.
Dogs enrolled in the study received once daily treatment for approximately 28 days. Baseline data (clinical history, concomitant therapies, body weight, physical examinations and assessments of pruritus and atopic dermatitis) were collected for each dog at enrollment (Day 0). Additional health assessments, physical examinations, body weight measurements, assessments of pruritus and atopic dermatitis, and collection of blood samples for hematology, serum chemistry and pharmacokinetic (PK) analysis occurred consistent with standard testing protocols.
The primary effectiveness variable was treatment success. A treatment success was defined as a 2 unit or more reduction from baseline on the 10-unit owner-assessed pruritus Visual-Analog Scale (VAS) in at least 70% of the first 7 treatment days (i.e., in at least 5 of the first 7 treatment days). Dogs withdrawn from the study within the first 7 days of treatment due to a perceived lack of effectiveness were considered treatment failures.
Random effects were fit for site and site treatment with a variance component covariance structure and a compound symmetry covariance structure was fit for individual dogs.

[2] = Particle size distribution of micronized (jet-milled) material, laser diffraction; format: physicochemical
Method: Micronization was begun with a short “setup” run of approximately 300 grams was performed using a feed rate of 9.6 kg/hr. Venturi/mill pressures were 10 psi.
Particle size distribution method of 2-(3-(4-(7H-pyrrolo[2,3-d]pyrimidin-4-yl)-1H-pyrazol-1-yl)-1-(cyclopropylsulfonyl)azetidin-3-yl)acetonitrile.
Method: 150 to 175 mg 2-(3-(4-(7H-pyrrolo[2,3-d]pyrimidin-4-yl)-1H-pyrazol-1-yl)-1-(cyclopropylsulfonyl)azetidin-3-yl)acetonitrile sample are dispersed with 1 ml Tween20/water mixture (10/90 v/v %) to a paste in a beaker. The entire paste is then transferred to the measuring cuvette (beaker is rinsed out with water for complete sample transfer) and dispersed in 300 ml water. To homogenize the suspension in the measuring cuvette, the pump speed is set to 600 rpm. Before measurement the sample is stirred for 30 seconds. The optical concentration should be in the range of approximately 15 to 20% but the value depends strongly on the particle size distribution in the sample. If the 15 to 20% range is not reached either more sample paste must be added or the sample has to be diluted with water.
Equipment: a Helos laser diffractometer from Sympatec is used. Suspensions are measured using a Quixel cell. Dry measurement is done using the Rodos unit. Evaluation is done using the Paqxos software.

[3] = Example 50 setup run, feed rate 9.6 kg/hr, venturi/mill pressures 10 psi
[4] = PSD method of Example 51, Helos laser diffractometer, suspension in water/Tween20

Row | SMILES | primary endpoint for treatment success ([1]; 0.6-0.8 mg/kg once daily) | Treatment Success LSMean (response rate) ([1]; 0.60-0.80 mg/kg once daily oral tablets containing Form II, success = 2 unit or more reduction on owner pruritus VAS in at least 5 of first 7 treatment days, generalized linear mixed model) | improvement in lesion scores ([1]; 0.6-0.8 mg/kg once daily, day 28) | improvement in pruritus ([1]; 0.6-0.8 mg/kg once daily, from first dose) | dv10 [2, 3] [µm] | dv50 [2, 3] [µm] | dv90 [2, 3] [µm] | dv10 [2, 4] [µm] | dv50 [2, 4] [µm] | dv90 [2, 4] [µm]
1 | N#CCC1(n2cc(-c3ncnc4[nH]ccc34)cn2)CN(S(=O)(=O)C2CC2)C1 [2-(3-(4-(7H-pyrrolo[2,3-d]pyrimidin-4-yl)-1H-pyrazol-1-yl)-1-(cyclopropylsulfonyl)azetidin-3-yl)acetonitrile] | achieved the primary endpoint for treatment success | 0.7188 | significant improvement in lesion scores at day 28 | significant improvements in pruritus from first dose | – | – | – | – | – | –
2 | N#CCC1(n2cc(-c3ncnc4[nH]ccc34)cn2)CN(S(=O)(=O)C2CC2)C1 [sample “I”, 2-(3-(4-(7H-pyrrolo[2,3-d]pyrimidin-4-yl)-1H-pyrazol-1-yl)-1-(cyclopropylsulfonyl)azetidin-3-yl)acetonitrile] | – | – | – | – | 4 | 20 | 53 | 4 | 20 | 51
